Our source for the IC50 and melting point values is patent US20030004172A1, “Fused pyrimidinone matrix metalloproteinase inhibitors” (priority 2001, published 2003).

Data set [1] concerns the target MMP-13CD (catalytic domain of collagenase-3) (Homo sapiens, UniProt P45452). Description: Thiopeptolide substrate hydrolysis inhibition assay, MMP-13CD. The class given is biochemical. An excerpt: (§1) Thiopeptolide substrates show virtually no decomposition or hydrolysis at or below neutral pH in the absence of a matrix metalloproteinase enzyme.
Data set [2] has as its target MMP-3CD (catalytic domain of stromelysin-1) (Homo sapiens, UniProt P08254). Kind of data set: Thiopeptolide substrate hydrolysis inhibition assay, MMP-3CD. The class given is biochemical. The following applies: Table II; micromolar concentration; MES buffer pH 6.0. The protocol:
as §1
It should be appreciated that the assay buffer used with MMP-3CD is 50 mM N-morpholinoethanesulfonate (“MES”) at pH 6.0 rather than the HEPES buffer at pH 7.0 described above.

The next data set has as its target T1, MMP-12CD (Homo sapiens, UniProt P39900).
T1 construct: 12CD
Description: Thiopeptolide substrate hydrolysis inhibition assay, MMP-12CD. The class given is biochemical. Conditions: Table II; micromolar concentration; HEPES pH 7.0.
Source text: as §1

The target of data set [3] is MMP-9FL (full-length Gelatinase B) (Homo sapiens, UniProt P14780). Kind of data set: Thiopeptolide substrate hydrolysis inhibition assay, MMP-9FL. The following applies: Table II; micromolar concentration; HEPES pH 7.0. The class given is biochemical.
Source text: as §1

[4] abbreviates: Table I, thiopeptolide substrate, HEPES pH 7.0, 22° C., read-out: MMP-13CD IC50.
The mark [5] stands for this setting: Table II, micromolar concentration, HEPES pH 7.0, read-out: IC50 MMP-13CD.

Molecules are shown by their SMILES. Where two headings read alike, the source gives them in different places.

MMP-3CD (catalytic domain of stromelysin-1), sequence (P08254 100-272 limits assumed): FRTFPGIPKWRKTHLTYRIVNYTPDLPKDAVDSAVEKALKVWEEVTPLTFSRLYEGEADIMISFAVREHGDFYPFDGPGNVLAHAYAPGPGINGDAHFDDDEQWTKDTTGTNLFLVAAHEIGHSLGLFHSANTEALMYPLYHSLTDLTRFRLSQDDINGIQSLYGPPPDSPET
T1 sequence (P39900 106-263 limits assumed): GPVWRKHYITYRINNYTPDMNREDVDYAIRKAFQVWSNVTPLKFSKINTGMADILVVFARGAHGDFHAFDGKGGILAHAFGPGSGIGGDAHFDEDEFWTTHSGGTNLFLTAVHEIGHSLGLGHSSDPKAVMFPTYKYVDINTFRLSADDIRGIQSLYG
MMP-9FL (full-length Gelatinase B), sequence (P14780 94-707, species assumed): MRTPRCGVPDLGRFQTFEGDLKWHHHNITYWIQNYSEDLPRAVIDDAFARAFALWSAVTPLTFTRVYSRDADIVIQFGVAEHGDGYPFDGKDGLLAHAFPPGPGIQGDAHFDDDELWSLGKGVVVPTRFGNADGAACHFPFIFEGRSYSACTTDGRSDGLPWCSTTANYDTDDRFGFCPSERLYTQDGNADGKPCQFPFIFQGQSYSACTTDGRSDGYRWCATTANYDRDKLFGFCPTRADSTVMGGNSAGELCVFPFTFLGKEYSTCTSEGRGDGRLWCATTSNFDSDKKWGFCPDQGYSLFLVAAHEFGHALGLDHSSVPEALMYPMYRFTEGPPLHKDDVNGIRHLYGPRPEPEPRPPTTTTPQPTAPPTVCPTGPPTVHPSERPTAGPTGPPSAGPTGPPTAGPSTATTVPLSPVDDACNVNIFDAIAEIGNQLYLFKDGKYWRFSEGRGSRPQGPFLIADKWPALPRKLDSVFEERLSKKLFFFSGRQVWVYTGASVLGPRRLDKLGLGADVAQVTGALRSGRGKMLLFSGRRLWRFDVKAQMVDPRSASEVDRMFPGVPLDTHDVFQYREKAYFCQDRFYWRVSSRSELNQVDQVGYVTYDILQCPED

The term IC50 denotes the concentration that inhibits the measured activity by half. What is called melting point is the temperature, or range, at which the solid turns liquid. On to `O=C(OCc1ccccc1)c1cc2c(=O)n(Cc3ccccc3)c(=O)[nH]c2s1` [Example 1, 3-Benzyl-2,4-dioxo-1,2,3,4-tetrahydro-thieno[2,3-d]pyrimidine-6-carboxylic acid benzyl ester], for which the melting point was 195 to 197 °C. The IC50 in data set [1] (setting [4]) came to 740 nM. The IC50 in data set [1] (setting [5]) is 610 nM. In addition, in data set [2], the IC50 came out at 18000 nM.

In the case of `O=C(OCc1ccncc1)c1cc2c(=O)n(Cc3ccccc3)c(=O)[nH]c2s1` [Example 2, 3-Benzyl-2,4-dioxo-1,2,3,4-tetrahydro-thieno[2,3-d]pyrimidine-6-carboxylic acid pyridin-4-ylmethyl ester], the melting point fell in the range of 248 to 250 °C. The IC50 in data set [1] (setting [4]) amounted to 310 nM.

As to `O=C(NCc1ccccc1)c1cc2c(=O)n(Cc3ccccc3)c(=O)[nH]c2s1` [Example 3, 3-Benzyl-2,4-dioxo-1,2,3,4-tetrahydro-thieno[2,3-d]pyrimidine-6-carboxylic acid benzyl amide], the melting point was over 255 °C. Further, the IC50 in data set [1] (setting [4]) was determined as 30000 nM.

Take `O=C(OCc1ccc(/C=C/c2ccccc2)cc1)c1cc2c(=O)n(Cc3ccccc3)c(=O)[nH]c2s1` [Example 4]: the melting point was 247 to 249 °C. In data set [1] (setting [4]), the IC50 was 16000 nM.

In turn, `Cc1c(C(=O)OCc2ccccc2)sc2[nH]c(=O)n(CCc3ccccc3)c(=O)c12` [Example 5, 5-Methyl-2,4-dioxo-3-phenylethyl-1,2,3,4-tetrahydro-thieno[2,3-d]pyrimidine-6-carboxylic acid benzyl ester] had a melting point of 207 to 209 °C. For the same compound, the concentration for half-maximal inhibition (IC50) in data set [1] (setting [4]) was determined as 51000 nM.

In turn, `Cc1ccc(-n2c(=O)[nH]c3sc(C(=O)OCc4ccccc4)c(C)c3c2=O)cc1` [Example 7, 5-Methyl-2,4-dioxo-3-p-tolyl-1,2,3,4-tetrahydro-thieno[2,3-d]-6-carboxylic acid benzyl ester] had a melting point of 267 to 269 °C. Also, the IC50 in data set [1] (setting [4]) was found to be 10000 nM.

For the compound `Cn1c(=O)n(Cc2ccccc2)c(=O)c2cc(C(=O)OCc3ccccc3)sc21` [Example 9, 3-Benzyl-1-methyl-2,4-dioxo-1,2,3,4-tetrahydro-thieno[2,3-d]pyrimidine-6-carboxylic acid benzyl ester], the melting point fell in the range of 143 to 145 °C.

For the compound `COc1cccc(CNC(=O)c2cc3c(=O)n(Cc4ccc(CC(=O)O)cc4)c(=O)n(C)c3s2)c1` [Example 39, {4-[6-(3-Methoxy-benzylcarbamoyl)-1-methyl-2,4-dioxo-1,4-dihydro-2H-thieno[2,3-d]pyrimidin-3-ylmethyl]-phenyl}-acetic acid], the results for the IC50 (in data set [1] (setting [5]); in data set [2]; against MMP-12CD) were 3.8 nM, 16000 nM and 10000 nM, respectively.

Consider `O=C(OCc1ccncc1)c1cc2c(=O)n(Cc3ccc(Br)cc3)c(=O)[nH]c2s1` [Example 49, 3-(4-Bromo-benzyl)-2,4-dioxo-1,2,3,4-tetrahydro-thieno[2,3-d]pyrimidine-6-carboxylic acid pyridin-4-ylmethyl ester], for which the figures for the IC50 in data set [1] (setting [4]), in data set [1] (setting [5]) and in data set [2] were 260 nM, 260 nM and 23000 nM, respectively.

On to `CCn1c(=O)n(Cc2ccccc2)c(=O)c2cc(C(=O)OCc3ccccc3)sc21` [Example 73, 3-Benzyl-1-ethyl-2,4-dioxo-1,2,3,4-tetrahydro-thieno[2,3-d]pyrimidine-6-carboxylic acid benzyl ester], for which the melting point fell in the range of 147 to 148 °C. Moreover, the IC50 in data set [1] (setting [4]) was over 100000 nM.

For the compound `COc1ccc(CNC(=O)c2cc3c(=O)n(Cc4ccc(S(N)(=O)=O)cc4)c(=O)n(C)c3s2)cc1` [Example 217, 1-Methyl-2,4-dioxo-3-(4-sulfamoyl-benzyl)-1,2,3,4-tetrahydro-thieno[2,3-d]pyrimidine-6-carboxylic acid 4-methoxy-benzylamide], the IC50 in data set [1] (setting [4]) is 78.5 nM; in data set [1] (setting [5]) it was 78.5 nM; in data set [2], 27000 nM; in data set [3] it was 30000 nM; at MMP-12CD, 30000 nM.

For `COc1ccc(CNC(=O)c2cc3c(=O)n(Cc4ccc(/C(N)=N/O)cc4)c(=O)n(C)c3s2)cc1` [Example 220, 3-[4-(N-Hydroxycarbamimidoyl)-benzyl]-1-methyl-2,4-dioxo-1,2,3,4-tetrahydro-thieno[2,3-d]pyrimidine-6-carboxylic acid 4-methoxy-benzylamide], the melting point is 226 to 228 °C (dec.). Further, the IC50 in data set [1] (setting [4]) came out at 61 nM.

Compound `COc1ccc(CNC(=O)c2cc3c(=O)n(CC#N)c(=O)n(C)c3s2)cc1` [Example 223, 3-Cyanomethyl-1-methyl-2,4-dioxo-1,2,3,4-tetrahydro-thieno[2,3-d]pyrimidine-6-carboxylic acid 4-methoxy-benzylamide] displayed a melting point of 180 to 183 °C.

As to `COc1cccc(CNC(=O)c2cc3c(=O)n(CC#N)c(=O)n(C)c3s2)c1` [Example 224, 3-Cyanomethyl-1-methyl-2,4-dioxo-1,2,3,4-tetrahydro-thieno[2,3-d]pyrimidine-6-carboxylic acid 3-methoxy-benzylamide], the melting point was in the range of 159 to 163 °C. The IC50 in data set [1] (setting [4]) came to 783 nM.

In the case of `COC(=O)/C=C/Cn1c(=O)c2cc(C(=O)NCc3ccc(OC)cc3)sc2n(C)c1=O` [Example 225, (E)-4-[6-(4-Methoxy-benzylcarbamoyl)-1-methyl-2,4-dioxo-1,4-dihydro-2H-thieno[2,3-d]pyrimidin-3-yl]-but-2-enoic acid methyl ester], the melting point is 169 to 171 °C. Also, the IC50 in data set [1] (setting [4]) was found to be 225 nM.

`COc1cccc(CNC(=O)c2cc3c(=O)n(Cc4ccc([N+](=O)[O-])nc4)c(=O)n(C)c3s2)c1` [Example 368, 1-Methyl-3-(6-nitro-pyridin-3-ylmethyl)-2,4-dioxo-1,2,3,4-tetrahydro-thieno[2,3-d]pyrimidine-6-carboxylic acid 3-methoxy-benzylamide]: in data set [1] (setting [4]), the IC50 stood at 735 nM.

Turning to `COc1cc(CNC(=O)c2cc3c(=O)n(Cc4ccc([N+](=O)[O-])nc4)c(=O)n(C)c3s2)ccn1` [Example 370, 1-Methyl-3-(6-nitro-pyridin-3-ylmethyl)-2,4-dioxo-1,2,3,4-tetrahydro-thieno[2,3-d]pyrimidine-6-carboxylic acid (2-methoxy-pyridin-4-ylmethyl)-amide], the IC50 in data set [1] (setting [4]) was determined as 1170 nM.

In the case of `COc1cc(CNC(=O)c2cc3c(=O)n(CC4CCCCC4)c(=O)n(C)c3s2)ccn1` [Example 371, 3-Cyclohexylmethyl-1-methyl-2,4-dioxo-1,2,3,4-tetrahydro-thieno[2,3-d]pyrimidine-6-carboxylic acid (2-methoxy-pyridin-4-ylmethyl)-amide], the IC50 in data set [1] (setting [4]) worked out at 220 nM.

For the compound `COc1cccc(CNC(=O)c2cc3c(=O)n(Cc4ccc(N)nc4)c(=O)n(C)c3s2)c1` [Example 384, 3-(6-Amino-pyridin-3-ylmethyl)-1-methyl-2,4-dioxo-1,2,3,4-tetrahydro-thieno[2,3-d]pyrimidine-6-carboxylic acid 3-methoxy-benzylamide], the IC50 in data set [1] (setting [4]) is 660 nM.

With `COc1ccc(CNC(=O)c2cc3c(=O)n(CC#Cc4ccccc4)c(=O)n(C)c3s2)cc1` [Example 385, 1-Methyl-2,4-dioxo-3-(3-phenyl-prop-2-ynyl)-1,2,3,4-tetrahydro-thieno[2,3-d]pyrimidine-6-carboxylic acid 4-methoxy-benzylamide], in data set [1] (setting [4]), the IC50 is 7 nM.
